# Source: US20080009418A1, “Selective Inhibitors” (Alchemia LTD., priority 2004, published 2008)
# Experiments:
# Human δ-opioid (DOP) = molecular target: T1, Human δ-opioid (DOP) (Homo sapiens, UniProt P41143); assay: Radioligand binding, human δ-opioid (DOP) membranes, FlashPlate, [3H]-Bremazocine; conditions: compound at 10 μM; [3H]-Bremazocine
# T1 construct: purchased Perkin Elmer Biosignal
# Experimental: (§1) Cloned receptor membrane preparations from Perkin Elmer Biosignal™ were used in radioligand binding assays.
# (§2) A1 Human δ-opioid (DOP), A2 Human κ-Opioid (KOP), A3 Human Melanocortin (MC3), A4 Human Melanocortin (MC4), A5 Human melanocortin (MC5), A6 Human melanin-concentrating hormone (MCH1), A7 Human μ-opioid (MOP), A8 Human neurokinin (NK1), A9 Human neuropeptide Y (NPY-Y1), A10 Human opioid (ORL1) A11 Mouse urotensin (mUR2)
# (§3) Screening experiments were performed in either a 50 μl filtration or 25 μl FlashPlate assay format using the following protocol:
# (§4) 19.5 μl buffer, 0.5 μl of compound diluted in DMSO, 5 μl of radioligand diluted in binding buffer.
# (§5) The day prior to performing the experiment 50 μl DMSO was added to each well of the compound plates to yield compounds at a final concentration of 10 mM. Daughter plates were then created by diluting the compounds further in DMSO to a concentration of 0.5 mM. The mother plates were frozen immediately.
# (§6) Immobilize membranes into FlashPlate microplates using PerkinElmer BioSignal's proprietary coating procedure. Dilute radioligand to 5× the final concentration in binding buffer. Add 19.5 μl buffer to each well of the FlashPlate. Add 0.5 μl of DMSO (total value, 5 wells), reference ligand (non-specific value, 3 wells) or compound to the corresponding wells in the FlashPlate microplate. Initiate the reaction by adding 5 μl of radioligand to each well. Apply TopSeal-A onto FlashPlate microplates. Incubate at room temperature for 1 hour in the dark. Count for 30 seconds per well on TopCount Microplate Scintillation and Luminescence Counter (PerkinElmer) using a count delay of 60 seconds.
# (§7) Percentage inhibition was calculated using the following formula: [formula]
# Human κ-Opioid (KOP) = molecular target: T2, Human κ-Opioid (KOP) (Homo sapiens, UniProt P41145); assay: Radioligand binding, human κ-opioid (KOP) membranes, filtration, [3H]-Diprenorphine; conditions: compound at 10 μM, [3H]-Diprenorphine
# T2 construct: purchased Perkin Elmer Biosignal
# Experimental: as §1, §2, §3
# (§8) 44 μl membranes diluted in buffer, 1 μl of compound diluted in DMSO, 5 μl of radioligand diluted in binding buffer.
# as §5
# (§9) Thaw membranes on ice then dilute membranes in binding buffer at a concentration of 1 Unit per well. Dilute radio-ligand to 10 times the final concentration in binding buffer. Add 44 μl of diluted membranes to each well of the deep-well plate. Add 1 μl of DMSO (total value, 5 wells), reference ligand (non-specific value, 3 wells) or compound to the corresponding wells in the deep-well plate. Initiate the reaction by adding 5 μl of radioligand to each well and vortex gently. Incubate at room temperature for 1 hour. During incubation, pre-incubate the Multiscreen Harvest plates in 0.3% PEI. Filter over pre-soaked Multiscreen Harvest plates using a Tomtec Harvester. Wash 9 times with 500 μl of cold 50 mM Tris-HCl pH 7.4 at 4° C. and air-dry for 30 minutes at room temperature under a fume hood. Apply a bottom seal to the Multiscreen Harvest plates. Add 25 μl of MicroScint-0 to each well. Apply TopSeal-A to the plate. Count for 30 seconds per well on TopCount Microplate Scintillation and Luminescence Counter (PerkinElmer) using a count delay of 60 seconds.
# as §7
# Human Melanocortin (MC3) = molecular target: T3, Human Melanocortin (MC3) (Homo sapiens, UniProt P41968); assay: Radioligand binding, human melanocortin MC3 membranes, FlashPlate, [125I]-NDP-αMSH; conditions: compound at 10 μM, [125I]-NDP-αMSH
# T3 construct: purchased Perkin Elmer Biosignal
# Experimental: as §1, §2, §3, §4, §5, §6, §7
# Human Melanocortin (MC4) = molecular target: T4, Human Melanocortin (MC4) (Homo sapiens, UniProt P32245); assay: Radioligand binding, human melanocortin MC4 membranes, FlashPlate, [125I]-NDP-αMSH; conditions: compound at 10 μM, [125I]-NDP-αMSH
# T4 construct: purchased Perkin Elmer Biosignal
# Experimental: as §1, §2, §3, §4, §5, §6, §7
# Human melanocortin (MC5) = molecular target: T5, Human melanocortin (MC5) (Homo sapiens, UniProt P33032); assay: Radioligand binding, human melanocortin MC5 membranes, FlashPlate, [125I]-NDP-αMSH; conditions: compound at 10 μM, [125I]-NDP-αMSH
# T5 construct: purchased Perkin Elmer Biosignal
# Experimental: as §1, §2, §3, §4, §5, §6, §7
# [1] = molecular target: T6, Human melanin-concentrating hormone (MCH1) (Homo sapiens, UniProt Q99705); assay: Radioligand binding, human melanin-concentrating hormone MCH1 membranes, FlashPlate, [125I]-S36057; conditions: compound at 10 μM, [125I]-S36057
# T6 construct: purchased Perkin Elmer Biosignal
# Experimental: as §1, §2, §3, §4, §5, §6, §7
# Human μ-opioid (MOP) = molecular target: T7, Human μ-opioid (MOP) (Homo sapiens, UniProt P35372); assay: Radioligand binding, human μ-opioid (MOP) membranes, FlashPlate, [3H]-Naloxone; conditions: compound at 10 μM, [3H]-Naloxone
# T7 construct: purchased Perkin Elmer Biosignal
# Experimental: as §1, §2, §3, §4, §5, §6, §7
# Human neurokinin (NK1) = molecular target: T8, Human neurokinin (NK1) (Homo sapiens, UniProt P25103); assay: Radioligand binding, human neurokinin NK1 membranes, filtration, [125I]-Substance P; conditions: compound at 10 μM; [125I]-Substance P
# T8 construct: purchased Perkin Elmer Biosignal
# Experimental: as §1, §2, §3, §8, §5, §9, §7
# [2] = molecular target: T9, Human neuropeptide Y (NPY-Y1) (Homo sapiens, UniProt P25929); assay: Radioligand binding, human neuropeptide Y NPY-Y1 membranes, FlashPlate, [125I]-PYY; conditions: compound at 10 μM; [125I]-PYY
# T9 construct: purchased Perkin Elmer Biosignal
# T9 sequence (P25929 1-384): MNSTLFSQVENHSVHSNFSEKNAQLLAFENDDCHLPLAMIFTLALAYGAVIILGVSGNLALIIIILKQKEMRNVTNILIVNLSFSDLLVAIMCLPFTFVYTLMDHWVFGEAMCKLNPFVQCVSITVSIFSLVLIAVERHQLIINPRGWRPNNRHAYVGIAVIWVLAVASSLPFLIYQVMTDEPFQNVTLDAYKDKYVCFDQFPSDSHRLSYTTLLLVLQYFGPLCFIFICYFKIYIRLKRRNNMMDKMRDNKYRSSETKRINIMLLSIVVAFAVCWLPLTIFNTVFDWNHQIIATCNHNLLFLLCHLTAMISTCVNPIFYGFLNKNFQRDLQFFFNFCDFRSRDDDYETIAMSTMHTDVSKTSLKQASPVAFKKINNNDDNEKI
# Experimental: as §1, §2, §3, §4, §5, §6, §7
# Human opioid (ORL1) = molecular target: T10, Human opioid (ORL1) (Homo sapiens, UniProt P41146); assay: Radioligand binding, human opioid ORL1 membranes, FlashPlate, [125I]-Nociceptin; conditions: compound at 10 μM, [125I]-Nociceptin
# T10 construct: purchased Perkin Elmer Biosignal
# Experimental: as §1, §2, §3, §4, §5, §6, §7
# Mouse urotensin (mUR2) = molecular target: T11, Mouse urotensin (mUR2) (Mus musculus, UniProt Q8VIH9); assay: Radioligand binding, mouse urotensin mUR2 membranes, FlashPlate, [125I]-Urotensin II; conditions: compound at 10 μM, [125I]-Urotensin II
# T11 construct: purchased Perkin Elmer Biosignal
# T11 sequence (Q8VIH9 1-385): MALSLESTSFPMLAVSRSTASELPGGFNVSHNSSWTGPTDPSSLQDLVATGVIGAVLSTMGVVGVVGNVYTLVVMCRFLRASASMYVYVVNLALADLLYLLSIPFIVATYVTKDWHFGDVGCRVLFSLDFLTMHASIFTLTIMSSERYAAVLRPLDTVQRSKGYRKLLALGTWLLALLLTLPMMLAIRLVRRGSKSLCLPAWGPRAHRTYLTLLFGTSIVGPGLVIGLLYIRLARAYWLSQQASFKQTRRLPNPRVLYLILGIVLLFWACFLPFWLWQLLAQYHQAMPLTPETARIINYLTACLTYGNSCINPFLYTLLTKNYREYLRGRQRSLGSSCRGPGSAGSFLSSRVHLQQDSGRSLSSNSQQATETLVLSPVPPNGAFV
# Experimental: as §1, §2, §3, §4, §5, §6, §7
# T5 sequence (P33032 whole entry): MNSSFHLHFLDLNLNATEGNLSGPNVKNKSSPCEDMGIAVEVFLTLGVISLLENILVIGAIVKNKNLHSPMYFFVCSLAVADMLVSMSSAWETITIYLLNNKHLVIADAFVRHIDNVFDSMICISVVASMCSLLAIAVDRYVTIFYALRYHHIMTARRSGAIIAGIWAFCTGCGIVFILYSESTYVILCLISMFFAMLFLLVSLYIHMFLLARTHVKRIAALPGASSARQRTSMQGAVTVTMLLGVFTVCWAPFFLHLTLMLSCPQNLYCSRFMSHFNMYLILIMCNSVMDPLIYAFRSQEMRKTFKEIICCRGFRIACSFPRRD
# T2 sequence (P41145 whole entry): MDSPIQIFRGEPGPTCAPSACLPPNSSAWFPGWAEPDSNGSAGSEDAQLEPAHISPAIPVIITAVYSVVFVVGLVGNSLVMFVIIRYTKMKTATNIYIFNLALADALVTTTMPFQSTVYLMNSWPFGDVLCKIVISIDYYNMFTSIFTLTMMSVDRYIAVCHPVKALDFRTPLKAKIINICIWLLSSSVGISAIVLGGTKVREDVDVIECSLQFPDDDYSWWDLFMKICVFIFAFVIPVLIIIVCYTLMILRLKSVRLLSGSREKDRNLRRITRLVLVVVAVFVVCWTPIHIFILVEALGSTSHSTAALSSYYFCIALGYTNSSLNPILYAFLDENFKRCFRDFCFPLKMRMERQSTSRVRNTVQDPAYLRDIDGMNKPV
# T6 sequence (Q99705 whole entry): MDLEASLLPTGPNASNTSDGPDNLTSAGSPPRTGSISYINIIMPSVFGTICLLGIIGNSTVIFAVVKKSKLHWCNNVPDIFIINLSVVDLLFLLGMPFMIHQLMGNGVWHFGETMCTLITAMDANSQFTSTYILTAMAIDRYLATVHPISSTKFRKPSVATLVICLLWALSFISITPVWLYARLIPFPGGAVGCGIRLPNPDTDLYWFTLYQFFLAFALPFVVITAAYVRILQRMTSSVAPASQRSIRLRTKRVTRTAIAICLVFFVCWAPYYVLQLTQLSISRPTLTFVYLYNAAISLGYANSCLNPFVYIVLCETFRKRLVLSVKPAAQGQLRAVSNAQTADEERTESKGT
# T7 sequence (P35372 whole entry): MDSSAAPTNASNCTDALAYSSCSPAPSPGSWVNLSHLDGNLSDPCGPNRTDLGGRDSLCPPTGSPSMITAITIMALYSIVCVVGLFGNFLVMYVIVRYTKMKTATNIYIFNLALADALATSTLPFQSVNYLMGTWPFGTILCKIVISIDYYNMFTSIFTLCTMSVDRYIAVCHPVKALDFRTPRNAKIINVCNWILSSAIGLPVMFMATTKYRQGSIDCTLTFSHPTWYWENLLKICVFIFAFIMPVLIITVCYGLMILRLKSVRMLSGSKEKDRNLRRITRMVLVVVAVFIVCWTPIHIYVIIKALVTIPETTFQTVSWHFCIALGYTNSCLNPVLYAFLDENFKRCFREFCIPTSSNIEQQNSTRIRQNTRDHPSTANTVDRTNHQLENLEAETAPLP
# T8 sequence (P25103 whole entry): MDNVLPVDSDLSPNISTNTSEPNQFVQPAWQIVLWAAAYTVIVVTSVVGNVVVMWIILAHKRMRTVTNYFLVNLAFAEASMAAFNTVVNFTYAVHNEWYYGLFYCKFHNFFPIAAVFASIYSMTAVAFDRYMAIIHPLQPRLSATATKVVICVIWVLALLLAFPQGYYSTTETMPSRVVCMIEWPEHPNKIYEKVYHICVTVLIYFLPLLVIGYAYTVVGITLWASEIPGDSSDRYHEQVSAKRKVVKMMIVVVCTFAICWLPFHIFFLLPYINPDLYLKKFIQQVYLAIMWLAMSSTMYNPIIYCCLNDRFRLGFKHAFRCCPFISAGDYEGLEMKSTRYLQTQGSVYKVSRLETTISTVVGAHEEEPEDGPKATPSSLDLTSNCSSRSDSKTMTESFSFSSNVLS
# T3 sequence (P41968 whole entry): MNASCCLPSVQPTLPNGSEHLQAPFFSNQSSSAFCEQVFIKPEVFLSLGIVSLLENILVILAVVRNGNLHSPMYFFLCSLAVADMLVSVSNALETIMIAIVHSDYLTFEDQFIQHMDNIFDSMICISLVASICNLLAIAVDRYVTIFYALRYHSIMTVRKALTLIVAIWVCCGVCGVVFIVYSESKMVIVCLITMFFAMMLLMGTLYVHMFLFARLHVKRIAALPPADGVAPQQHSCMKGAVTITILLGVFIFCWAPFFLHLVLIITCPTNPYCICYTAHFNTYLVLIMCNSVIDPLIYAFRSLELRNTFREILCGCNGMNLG
# T4 sequence (P32245 whole entry): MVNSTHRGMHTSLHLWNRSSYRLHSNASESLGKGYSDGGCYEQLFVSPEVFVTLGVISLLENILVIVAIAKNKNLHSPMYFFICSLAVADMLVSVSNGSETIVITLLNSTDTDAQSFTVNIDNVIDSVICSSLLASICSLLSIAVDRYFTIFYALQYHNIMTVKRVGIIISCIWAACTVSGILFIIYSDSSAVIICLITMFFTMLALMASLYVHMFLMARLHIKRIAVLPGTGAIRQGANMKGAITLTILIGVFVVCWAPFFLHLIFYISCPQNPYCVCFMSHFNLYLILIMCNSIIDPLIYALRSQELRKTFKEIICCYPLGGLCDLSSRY
# T1 sequence (P41143 whole entry): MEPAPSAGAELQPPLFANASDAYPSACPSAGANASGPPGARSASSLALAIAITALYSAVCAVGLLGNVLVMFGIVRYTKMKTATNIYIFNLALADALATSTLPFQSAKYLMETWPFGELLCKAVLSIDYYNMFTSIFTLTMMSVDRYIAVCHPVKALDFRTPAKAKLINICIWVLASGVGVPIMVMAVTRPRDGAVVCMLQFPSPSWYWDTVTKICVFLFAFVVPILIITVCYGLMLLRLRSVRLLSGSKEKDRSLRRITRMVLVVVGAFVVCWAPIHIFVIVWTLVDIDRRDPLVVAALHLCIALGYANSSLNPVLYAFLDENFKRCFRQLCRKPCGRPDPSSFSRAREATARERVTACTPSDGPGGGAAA
# T10 sequence (P41146 whole entry): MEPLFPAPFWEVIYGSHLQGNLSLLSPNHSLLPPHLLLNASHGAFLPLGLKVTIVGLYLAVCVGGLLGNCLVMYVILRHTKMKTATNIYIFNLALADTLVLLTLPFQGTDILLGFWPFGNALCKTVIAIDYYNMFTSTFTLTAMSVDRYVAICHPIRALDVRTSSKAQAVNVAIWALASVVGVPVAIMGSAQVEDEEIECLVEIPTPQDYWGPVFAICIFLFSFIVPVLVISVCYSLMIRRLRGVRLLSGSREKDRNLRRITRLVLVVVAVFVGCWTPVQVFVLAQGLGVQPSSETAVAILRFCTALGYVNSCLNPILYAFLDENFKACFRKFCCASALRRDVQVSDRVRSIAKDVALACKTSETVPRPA
Structure (SMILES),"A1: inhibition of radioligand binding, human δ-opioid (DOP) (Human δ-opioid (DOP))","A2: inhibition of radioligand binding, human κ-opioid (KOP) (Human κ-Opioid (KOP))","A3: inhibition of radioligand binding, human melanocortin (MC3) (Human Melanocortin (MC3))","A4: inhibition of radioligand binding, human melanocortin (MC4) (Human Melanocortin (MC4))","A5: inhibition of radioligand binding, human melanocortin (MC5) (Human melanocortin (MC5))","A6: inhibition of radioligand binding, human melanin-concentrating hormone (MCH1) [1]","A7: inhibition of radioligand binding, human μ-opioid (MOP) (Human μ-opioid (MOP))","A8: inhibition of radioligand binding, human neurokinin (NK1) (Human neurokinin (NK1))","A9: inhibition of radioligand binding, human neuropeptide Y (NPY-Y1) [2]","A10: inhibition of radioligand binding, human opioid (ORL1) (Human opioid (ORL1))","A11: inhibition of radioligand binding, mouse urotensin (mUR2) (Mouse urotensin (mUR2))","A2: inhibition of radioligand binding, human κ-opioid (KOP) (Human κ-Opioid (KOP); 10 µM)","A3: inhibition of radioligand binding, human melanocortin (MC3) (Human Melanocortin (MC3); 10 µM)","A4: inhibition of radioligand binding, human melanocortin (MC4) (Human Melanocortin (MC4); 10 µM)","A5: inhibition of radioligand binding, human melanocortin (MC5) (Human melanocortin (MC5); 10 µM)","A6: inhibition of radioligand binding, human melanin-concentrating hormone (MCH1) ([1]; 10 µM)","A7: inhibition of radioligand binding, human μ-opioid (MOP) (Human μ-opioid (MOP); 10 µM)","A10: inhibition of radioligand binding, human opioid (ORL1) (Human opioid (ORL1); 10 µM)","A11: inhibition of radioligand binding, mouse urotensin (mUR2) (Mouse urotensin (mUR2); 10 µM)"
"COC[C@H]1OC(OCc2ccc(Cl)cc2)[C@H](NC(=O)CCCN)[C@@H](OCc2ccc3ccccc3c2)[C@@H]1O (single isomer, unassigned) [compound 344]",− (“−” indicates less than 50% inhibition at 10 μM),− (“−” indicates less than 50% inhibition at 10 μM),− (“−” indicates less than 50% inhibition at 10 μM),− (“−” indicates less than 50% inhibition at 10 μM),− (“−” indicates less than 50% inhibition at 10 μM),− (“−” indicates less than 50% inhibition at 10 μM),− (“−” indicates less than 50% inhibition at 10 μM),+ (“+” indicates greater than 50% inhibition at 10 μM),− (“−” indicates less than 50% inhibition at 10 μM),− (“−” indicates less than 50% inhibition at 10 μM),− (“−” indicates less than 50% inhibition at 10 μM),,,,,,,,
"COC[C@H]1OC(OCCc2ccccc2)[C@H](NC(=O)CCCN)[C@@H](OCc2ccc3ccccc3c2)[C@@H]1O (single isomer, unassigned) [compound 345]",− (“−” indicates less than 50% inhibition at 10 μM),,,,,,,+ (“+” indicates greater than 50% inhibition at 10 μM),− (“−” indicates less than 50% inhibition at 10 μM),,,− (“−” indicates less than 50% inhibition at 10 μM),− (“−” indicates less than 50% inhibition at 10 μM),− (“−” indicates less than 50% inhibition at 10 μM),− (“−” indicates less than 50% inhibition at 10 μM),− (“−” indicates less than 50% inhibition at 10 μM),− (“−” indicates less than 50% inhibition at 10 μM),− (“−” indicates less than 50% inhibition at 10 μM),− (“−” indicates less than 50% inhibition at 10 μM)
"COC[C@H]1OC(OCCc2ccccc2)[C@H](NC(=O)CCCN)[C@@H](OCc2ccc3ccccc3c2)[C@@H]1O (single isomer, unassigned) [compound 346]",− (“−” indicates less than 50% inhibition at 10 μM),,,,,,,+ (“+” indicates greater than 50% inhibition at 10 μM),− (“−” indicates less than 50% inhibition at 10 μM),,,+ (“+” indicates greater than 50% inhibition at 10 μM),+ (“+” indicates greater than 50% inhibition at 10 μM),+ (“+” indicates greater than 50% inhibition at 10 μM),+ (“+” indicates greater than 50% inhibition at 10 μM),+ (“+” indicates greater than 50% inhibition at 10 μM),+ (“+” indicates greater than 50% inhibition at 10 μM),+ (“+” indicates greater than 50% inhibition at 10 μM),+ (“+” indicates greater than 50% inhibition at 10 μM)
